From patent US10588280B2, “Aided delivery of plant treatment agents” (Monsanto Technology LLC, priority 2014, dated 2020)

Experiments:
[1] = tested on: haploid corn seedlings (SAM); assay: Example 3: serial (submerged then unsubmerged) centrifugation with colchicine, survival and doubling success; format: in vivo; settings: for DE / Fert. Success / Initial Survival / Poll. Success: 1000 ppm colchicine, submerged 50 g 3 min then unsubmerged 335 g 3 min
Description: Seeds of 5 different F1 hybrid-derived haploid corn lines were randomly-selected and germinated in a greenhouse. The resulting seedlings were removed from soil or growth media at the V1-V3 growth stage and the soil or growth media rinsed from the plants with water. Seedlings were then aligned and assembled along with several rods in a bundled PCS similar to what is shown in FIG. 9 and a plant treatment solution comprising 1000 ppm colchicine was poured into the container such that the solution submerged the SAM of each plant and then the entire sample was centrifuged at 50 g for 3 min while the SAMs remained submerged in the plant treatment agent.
Following the first centrifugation, the plant treatment solution was decanted and the seedlings subjected to an unsubmerged centrifugation at 335 g for 3 min.
(§1) Following the second centrifugation, the plants were removed from the centrifugation container and rinsed with water to remove any remaining colchicine solution, and then recovered and tended in a light, humidity, and temperature-controlled greenhouse for several days before being transplanted to a nursery greenhouse.
The control sample received no colchicine exposure, but was otherwise handled identically as the experimental samples. During the subsequent growth of the plants, the initial survival, pollination success, fertilization success, final survival, and doubling efficiency was determined within each sample as described in Example 2.

[2] = tested on: haploid seedlings derived from corn inbred 91DUQ1 or 83IDI1 (SAM); assay: Example 8: serial centrifugation with colchicine, unsubmerged spin at 340 g to 2000 g; format: in vivo; settings: 1250 ppm colchicine, submerged 50 g 3 min
Description: F1 hybrid-derived haploid seedlings derived from either female corn inbred line 91DUQ1 or male corn inbred line 83IDI1 were germinated in soil in a greenhouse in standard maize growing conditions and grown to the V1-V2 growth stage (1 week after planting). Seedlings were then removed from the soil, rinsed to remove residual soil, and partitioned into 5 samples comprising several dozen seedlings each.
This bundled PCS sample was placed into a centrifuge container, roots first. Each plant of the other four samples were individually wrapped to a PCS comprising a rod with a paraffin wrap and placed into a separate centrifuge container, one plant-PCS assembly per container, similar to that shown in FIG. 7.
Once attached to their respective PCSs and placed into their respective centrifuge containers, a solution comprising 1250 ppm colchicine was added to each container until each plant was submerged at least up until the SAM of every plant was submerged. All samples were then centrifuged with the SAMs submerged in treatment solution for 3 min at 50 g.
Following the first centrifugation, the treatment solution was drained from each centrifugation container, and then each sample was subjected to an unsubmerged spin for 3 minutes at one of six different rates, ranging from 340 g to 2000 g, as shown in Table 9.
Following the second centrifugation, the plants were removed from the centrifugation container and rinsed with water to remove any remaining colchicine solution, and then transplanted into 10-inch pots and tended in a growth room under standard maize growing conditions until they grew to maturity and flowered.
Self-pollinations were attempted with each plant that survived the treatment to produce pollen and an ear, and pollination success as determined within each sample.

[3] = tested on: haploid seedlings derived from 91DUQ1 or 83IDI1 (SAM); assay: Example 9: serial centrifugation with colchicine and incubation between spins; format: in vivo, maize; settings: submerged 100 g 3 min, unsubmerged 340 g 3 min, ear with at least four kernels
Description: F1 hybrid-derived haploid seedlings derived from either female inbred line 91DUQ1 or male inbred line 83IDI1 were germinated in soil in a greenhouse in standard maize growing conditions and grown to the V1 growth stage (1 week after planting). Next, the seedlings were removed from the soil, rinsed with water to remove residual soil form the plants, and then divided into 4 samples comprising several seedlings of each germplasm per sample.
Each sample was then bundled in a PCS comprising an aluminum foil wrap and wooden rods for support, similar to that shown in FIG. 9. Once bundled in a PCS, each sample was contacted by a plant treatment solution comprising either 600 ppm or 800 ppm colchicine such that the SAM of each plant was entirely submerged, and then each sample was centrifuged at 100 g for 3 min with the SAMs submerged in the reserve doubling agent during centrifugation.
Following the submerged centrifugation, plants were removed from the centrifuge container and while some doubling solution from the first centrifugation remained clinging to the plants, the roots and bottom half of each stem were rinsed in water to remove any doubling agent from that end of the plant. Then each bundled sample was incubated in an enclosed, humid environment for one of the four incubation periods listed Table 8.
Following each respective incubation period, the bundled samples were removed from the humid enclosure and subjected to an unsubmerged centrifugation at 340 g for 3 min, wherein the only doubling solution that contacted the plants was that which remained on the plants from the previous submerged centrifugation, i.e. no additional doubling solution was added to the plants after the first centrifugation.
as §1, with “green house where they were tended under standard maize growing conditions until they grew to maturity and flowered.” for “greenhouse.”
Self-pollinations were attempted with each plant that survived the treatment to produce pollen and final doubling efficiencies were determined within each treatment. In this experiment, the doubling efficiency within each treatment sample was calculated by dividing the number of plants of each treatment sample that produced at least one ear comprising at least four kernels by the total number of plants subjected to that set of treatment conditions.

[4] = bundled PCS, unsubmerged 340 g 3 min
[5] = individually-wrapped PCS, unsubmerged 340 g 3 min
[6] = individually-wrapped PCS, unsubmerged 500 g 3 min
[7] = individually-wrapped PCS, unsubmerged 750 g 3 min
[8] = individually-wrapped PCS, unsubmerged 1000 g 3 min
[9] = individually-wrapped PCS, unsubmerged 2000 g 3 min

COc1cc2c(c(OC)c1OC)-c1ccc(OC)c(=O)cc1[C@@H](NC(C)=O)CC2 [colchicine]
DE ([1]; Ave: of five lines): 72% | Fert. Success ([1]; Ave: of five lines): 94% | Initial Survival ([1]; Ave: of five lines): 93% | Poll. Success ([1]; Ave: of five lines): 85% | DE ([1]; line F1004): 57% | Fert. Success ([1]; line F1004): 100% | Initial Survival ([1]; line F1004): 93% | Poll. Success ([1]; line F1004): 62% | DE ([1]; line F1045): 75% | Fert. Success ([1]; line F1045): 100% | Initial Survival ([1]; line F1045): 100% | Poll. Success ([1]; line F1045): 75% | DE ([1]; line F1095): 80% | Fert. Success ([1]; line F1095): 92% | Initial Survival ([1]; line F1095): 100% | Poll. Success ([1]; line F1095): 87% | DE ([1]; line F1118): 60% | Fert. Success ([1]; line F1118): 86% | Initial Survival ([1]; line F1118): 70% | Poll. Success ([1]; line F1118): 100% | DE ([1]; line F1900): 90% | Fert. Success ([1]; line F1900): 90% | Initial Survival ([1]; line F1900): 100% | Poll. Success ([1]; line F1900): 100% | individuals that produced pollen and silks ([1]; minimum over all five inbred samples receiving the experimental treatment): at least 62% | increase in overall DE as compared to controls ([1]; samples receiving serial centrifugation with 1000 ppm colchicine vs controls): 67% | DE [2, 4]: 68.9% | Fertilization Success [2, 4]: 85.0% | Pollination success [2, 4]: 90.0% | Survival Rate [2, 4]: 90.0% | DE [2, 5]: 89.3% | Fertilization Success [2, 5]: 96.2% | Pollination success [2, 5]: 100.0% | Survival Rate [2, 5]: 92.9% | DE [2, 6]: 96.4% | Fertilization Success [2, 6]: 100.0% | Pollination success [2, 6]: 100.0% | Survival Rate [2, 6]: 96.4% | DE [2, 7]: 83.3% | Fertilization Success [2, 7]: 95.2% | Pollination success [2, 7]: 100.0% | Survival Rate [2, 7]: 87.5% | DE [2, 8]: 85.7% | Fertilization Success [2, 8]: 100.0% | Pollination success [2, 8]: 92.3% | Survival Rate [2, 8]: 92.9% | DE [2, 9]: 63.6% | Fertilization Success [2, 9]: 87.5% | Pollination success [2, 9]: 100.0% | Survival Rate [2, 9]: 72.7% | DE ([3]; 600 ppm colchicine, incubation 3 min): 0.41 | DE ([3]; 600 ppm colchicine, incubation 3 hrs): 0.78 | DE ([3]; 800 ppm colchicine, incubation 3 min): 0.66 | DE ([3]; 800 ppm colchicine, incubation 3 hrs): 0.79
